{"source": "patent US11058703B2", "about": "“Application of triacetyl-3-hydroxyphenyladenosine in preparation of pharmaceutical drug for preventing or treating non-alcoholic fatty liver disease” (priority 2015, dated 2021)", "key": {"[1]": {"tested_on": "golden hamster with non-alcoholic fatty liver disease induced by high-fat diet", "test": "Serum lipid indexes of golden hamster with non-alcoholic fatty liver disease induced by high-fat diet", "assay_type": "in vivo, Syrian golden hamster", "settings": "n = 10; for LDL-C: calculated LDL=TC-HDL-0.2TG", "protocol": "(§1) After 5 days of adaptive feeding, animals were randomly divided into a normal control group (n=15), a high-fat diet group (n=15), an IMMH007 low-dose group (25 mg/kg, n=15), an IMMH007 medium-dose group (50 mg/kg, n=15), and an IMMH007 high-dose group (100 mg/kg, n=15), and given intragastric administration twice daily.\n(§2) The animals were fasted for 12 hours, and 0.5 ml blood was collected from the angular vein and allowed to stand for 60 min, and centrifuged at 6000 g for 10 min, and the supernatant was aspirated as much as possible, and then centrifuged at 6000 g for 10 min. The absorbance values were measured according to the instructions of the total cholesterol (TC), triglycerides (TG), aspartate aminotransferase (AST), and alanine aminotransferase (ALT) kits, and the concentration of each index was calculated. 50 ul serum was mixed with 50 ul PEG6000 in a ratio of 1:1, vortexed uniformly, allowed to stand for 10 min, and centrifuged at 1900 g for 20 min at room temperature, and the supernatant was carefully pipetted, stored at 4° C., and measured for high density lipoprotein cholesterol (HDL-C) according to the instructions of the total cholesterol (TC) kit. The plasma low density lipoprotein (LDL) level was calculated by subtracting HDL-C and 0.2-fold TG levels from plasma total cholesterol TC, ie, LDL=TC-HLD-0.2TG."}, "[2]": {"tested_on": "golden hamster with non-alcoholic fatty liver disease induced by high-fat diet", "settings": "in vivo", "protocol": "as §1, §2"}, "[3]": {"tested_on": "golden hamster with non-alcoholic fatty liver disease induced by high-fat diet", "test": "Liver function (serum ALT, AST) of golden hamster with non-alcoholic fatty liver disease induced by high-fat diet", "settings": "n = 10; for GPT: serum ALT; for GOT: serum AST", "protocol": "as §1, §2"}, "[4]": {"tested_on": "golden hamster with non-alcoholic fatty liver disease induced by high-fat diet", "test": "Lipid content in liver tissue of golden hamster with non-alcoholic fatty liver disease induced by high-fat diet", "assay_type": "in vivo, Syrian golden hamster", "settings": "n = 10", "description": "100 mg liver tissue was accurately weighed, and added with a triglyceride detection lysate, the tissue was homogenized by a homogenizer in an ice bath to no significant tissue mass, placed on ice for 5 min, transferred to a 1.5 ml centrifuge tube, and centrifuged at 14000 g for 10 min at 4° C., the supernatant was transferred and a portion of the supernatant was taken for protein quantification, and detected for its lipid content according to the instructions of the TC and TG detection kits."}, "[5]": {"tested_on": "golden hamster with non-alcoholic fatty liver disease induced by high-fat diet", "test": "Body weight and liver coefficient of golden hamster with non-alcoholic fatty liver disease induced by high-fat diet", "assay_type": "in vivo, Syrian golden hamster", "settings": "n = 10, mean ± standard error", "description": "The animals were fasted overnight before the end of the experiment, anesthetized by intraperitoneal injection of 3% pentobarbital sodium, the abdominal cavity was exposed, and the liver was rapidly separated after blood was taken from the aorta abdominalis. One liver lobe was preserved, and two pieces of 1×1 cm^3 pieces were cut at a fixed site, one piece was embedded in OCT, quickly frozen in liquid nitrogen, and stored in liquid nitrogen or at −80° C.; and the other piece was placed in a 4% paraformaldehyde stationary liquid and stored at 4° C."}}}
{"smiles": "CC(=O)OCC1OC(n2cnc3c(Nc4cccc(O)c4)ncnc32)C(OC(C)=O)C1OC(C)=O", "note": "(stereo not shown) [IMM-H007, triacetyl-3-hydroxyphenyladenosine]", "values": [{"measurement": "FFA", "setting": "[1]; IMM-H007 50 mg/kg", "result": "2324.6 ± 783.4", "unit": "μEq/L"}, {"measurement": "HDL-C", "setting": "[1]; IMM-H007 50 mg/kg", "result": "2.8 ± 0.4", "unit": "mmol/L"}, {"measurement": "TC", "setting": "[1]; IMM-H007 50 mg/kg", "result": "7.9 ± 1.0", "unit": "mmol/L"}, {"measurement": "TG", "setting": "[1]; IMM-H007 50 mg/kg", "result": "4.7 ± 1.9", "unit": "mmol/L"}, {"measurement": "FFA", "setting": "[1]; IMM-H007 100 mg/kg", "result": "1889.5 ± 386.5", "unit": "μEq/L"}, {"measurement": "HDL-C", "setting": "[1]; IMM-H007 100 mg/kg", "result": "2.8 ± 0.2", "unit": "mmol/L"}, {"measurement": "TC", "setting": "[1]; IMM-H007 100 mg/kg", "result": "7.0 ± 1.0", "unit": "mmol/L"}, {"measurement": "TG", "setting": "[1]; IMM-H007 100 mg/kg", "result": "4.3 ± 1.4", "unit": "mmol/L"}, {"measurement": "FFA", "setting": "[1]; IMM-H007 200 mg/kg", "result": "1497.6 ± 326.2", "unit": "μEq/L"}, {"measurement": "HDL-C", "setting": "[1]; IMM-H007 200 mg/kg", "result": "2.6 ± 0.5", "unit": "mmol/L"}, {"measurement": "TC", "setting": "[1]; IMM-H007 200 mg/kg", "result": "6.7 ± 1.0", "unit": "mmol/L"}, {"measurement": "TG", "setting": "[1]; IMM-H007 200 mg/kg", "result": "2.7 ± 0.8", "unit": "mmol/L"}, {"measurement": "LDL-C", "setting": "[1]; IMM-H007 50 mg/kg", "result": "4.1 ± 1.2", "unit": "mmol/L"}, {"measurement": "LDL-C", "setting": "[1]; IMM-H007 100 mg/kg", "result": "4.0 ± 0.7", "unit": "mmol/L"}, {"measurement": "LDL-C", "setting": "[1]; IMM-H007 200 mg/kg", "result": "3.3 ± 0.5", "unit": "mmol/L"}, {"measurement": "Effect on the liver as concluded from serum ALT and AST", "setting": "[2]", "result": "good hepatic protective effect"}, {"measurement": "GPT", "setting": "[3]; IMM-H007 50 mg/kg", "result": "21.1 ± 5.2", "unit": "U/L"}, {"measurement": "GPT", "setting": "[3]; IMM-H007 100 mg/kg", "result": "20.9 ± 8.0", "unit": "U/L"}, {"measurement": "GPT", "setting": "[3]; IMM-H007 200 mg/kg", "result": "12.4 ± 3.1", "unit": "U/L"}, {"measurement": "GOT", "setting": "[3]; IMM-H007 50 mg/kg", "result": "9.4 ± 1.7", "unit": "U/L"}, {"measurement": "GOT", "setting": "[3]; IMM-H007 100 mg/kg", "result": "8.4 ± 2.3", "unit": "U/L"}, {"measurement": "GOT", "setting": "[3]; IMM-H007 200 mg/kg", "result": "7.2 ± 2.1", "unit": "U/L"}, {"measurement": "TC", "setting": "[4]; IMM-H007 50 mg/kg", "result": "2.8 ± 0.8", "unit": "µmol/g protein"}, {"measurement": "TG", "setting": "[4]; IMM-H007 50 mg/kg", "result": "3.6 ± 0.1", "unit": "µmol/g protein"}, {"measurement": "TC", "setting": "[4]; IMM-H007 100 mg/kg", "result": "2.4 ± 0.4", "unit": "µmol/g protein"}, {"measurement": "TG", "setting": "[4]; IMM-H007 100 mg/kg", "result": "3.3 ± 0.1", "unit": "µmol/g protein"}, {"measurement": "TC", "setting": "[4]; IMM-H007 200 mg/kg", "result": "1.8 ± 0.8", "unit": "µmol/g protein"}, {"measurement": "TG", "setting": "[4]; IMM-H007 200 mg/kg", "result": "2.8 ± 0.1", "unit": "µmol/g protein"}, {"measurement": "Body Weight", "setting": "[5]; IMM-H007 50 mg/kg", "result": "170 ± 11"}, {"measurement": "Liver Organ Coefficient", "setting": "[5]; IMM-H007 50 mg/kg", "result": "0.0313 ± 0.002"}, {"measurement": "Liver Organ Coefficient", "setting": "[5]; IMM-H007 100 mg/kg", "result": "0.0291 ± 0.003"}, {"measurement": "Body Weight", "setting": "[5]; IMM-H007 100 mg/kg, in g (unit assumed)", "result": "177 ± 9"}, {"measurement": "Body Weight", "setting": "[5]; IMM-H007 200 mg/kg", "result": "166 ± 12"}, {"measurement": "Liver Organ Coefficient", "setting": "[5]; IMM-H007 200 mg/kg", "result": "0.0298 ± 0.002"}]}
